Patent US20230044268A1, “AN IMPROVED PROCESS FOR PREPARATION OF LIRAGLUTIDE” (SHILPA MEDICARE LIMITED, priority 2019, published 2023)

Assay: storage stability of liraglutide obtained by the present process
Format: physicochemical
Conditions: storage of the isolated product; conditions not given
Description: The present invention also relates to a process for the preparation of liraglutide, which is substantially pure having a purity of greater or equal to 99.5% and meeting the ICH guidelines. Further, the liraglutide obtained as per the present process is found devoid of any other process related impurities and is adequately stable to handle and store for longer time (at least up to more than 6 months) without any significant or measurable change in its morphology and physicochemical characteristics.

## Liraglutide
  stable to handle and store without any significant or measurable change in morphology and physicochemical characteristics: more than 6 months
